Laboratory results taken from patent US9708334B2, “Substituted 2,4,5,6-tetrahydropyrrolo[3,4-c]pyrazole and 4,5,6,7-tetrahydro-2H-pyrazolo[4,3-c]pyridine compounds as GlyT1 inhibitors” (DART NEUROSCIENCE (CAYMAN) LTD., priority 2014, dated 2017).

Target: T1, GlyT1 (Homo sapiens, UniProt P48067)
T1 construct: expressed in transfected cells
T1 sequence (P48067 1-706): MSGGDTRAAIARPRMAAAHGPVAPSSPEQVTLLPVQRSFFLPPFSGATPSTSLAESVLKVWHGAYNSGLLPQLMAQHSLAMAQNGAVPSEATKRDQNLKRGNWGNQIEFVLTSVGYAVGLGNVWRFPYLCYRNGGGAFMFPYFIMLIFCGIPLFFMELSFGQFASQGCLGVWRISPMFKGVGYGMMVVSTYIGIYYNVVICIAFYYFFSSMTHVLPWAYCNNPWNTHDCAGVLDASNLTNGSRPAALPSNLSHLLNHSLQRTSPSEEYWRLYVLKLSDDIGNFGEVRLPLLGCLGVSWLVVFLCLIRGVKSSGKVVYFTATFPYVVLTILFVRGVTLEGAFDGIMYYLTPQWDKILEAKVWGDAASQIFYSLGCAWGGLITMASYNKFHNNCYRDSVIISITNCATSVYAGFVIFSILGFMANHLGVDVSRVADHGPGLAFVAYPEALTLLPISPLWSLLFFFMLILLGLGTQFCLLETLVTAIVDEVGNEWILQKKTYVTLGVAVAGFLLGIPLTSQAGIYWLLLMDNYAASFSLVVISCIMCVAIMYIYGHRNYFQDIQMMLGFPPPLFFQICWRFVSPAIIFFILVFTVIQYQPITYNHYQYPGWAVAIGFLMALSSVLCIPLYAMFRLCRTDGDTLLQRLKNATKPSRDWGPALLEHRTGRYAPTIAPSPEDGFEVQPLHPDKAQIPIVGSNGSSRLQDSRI
Test: Glycine Transporter 1 (GlyT1) uptake assay, scintillation proximity assay of [14C]-glycine uptake
Format: cell-based
Conditions: SPA, four parameter logistic fit, read-out: GlyT1 (pIC50) (converted)
Outline: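 IC50 values derive from four-parameter logistic curves fitted to dose-response data. Uptake of [14C]-glycine measured in scintillation proximity format.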

SMILES	IC50 [nM]
COc1c(C#N)ccc(OC(C)C(F)(F)F)c1C(=O)N1CCc2nn(-c3ccc(F)cn3)cc2C1 (stereo not drawn) [Example 202, 3-[2-(5-Fluoropyridin-2-yl)-2H 4H 5H 6H 7H-pyrazolo[4,3-c]pyridine-5-carbonyl]-2-methoxy-4-[(1 1 1-trifluoropropan-2-yl)oxy]benzonitrile]	100 to 1000
CC(Oc1ccc(C#N)c(Cl)c1C(=O)N1CCc2nn(C)cc2C1)C(F)(F)F (stereo not drawn) [Example 203, 2-Chloro-3-{2-methyl-2H 4H 5H 6H 7H-pyrazolo[4,3-c]pyridine-5-carbonyl}-4-[(1 1 1-trifluoropropan-2-yl)oxy]benzonitrile]	1000 to 10000
COc1c(C#N)ccc(OC(C)C(F)(F)F)c1C(=O)N1CCc2nn(C)cc2C1 (stereo not drawn) [Example 204, 2-Methoxy-3-{2-methyl-2H 4H 5H 6H 7H-pyrazolo[4,3-c]pyridine-5-carbonyl}-4-[(1 1 1-trifluoropropan-2-yl)oxy]benzonitrile]	100 to 1000
COc1cccc(-n2cc3c(n2)CCN(C(=O)c2c(OC(C)C(F)(F)F)ccc(C#N)c2Cl)C3)c1 (stereo not drawn) [Example 205, 2-Chloro-3-[2-(3-methoxyphenyl)-2H 4H 5H 6H 7H-pyrazolo[4,3-c]pyridine-5-carbonyl]-4-[(1 1 1-trifluoropropan-2-yl)oxy]benzonitrile]	100 to 1000
COc1ccc(-n2cc3c(n2)CCN(C(=O)c2c(OC(C)C(F)(F)F)ccc(C#N)c2Cl)C3)cc1 (stereo not drawn) [Example 206, 2-Chloro-3-[2-(4-methoxyphenyl)-2H 4H 5H 6H 7H-pyrazolo[4,3-c]pyridine-5-carbonyl]-4-[(1 1 1-trifluoropropan-2-yl)oxy]benzonitrile]	100 to 1000
COc1ccc(-n2cc3c(n2)CCN(C(=O)c2c(OC(C)C(F)(F)F)ccc(C#N)c2OC)C3)cc1 (stereo not drawn) [Example 207, 2-Methoxy-3-[2-(4-methoxyphenyl)-2H 4H 5H 6H 7H-pyrazolo[4,3-c]pyridine-5-carbonyl]-4-[(1 1 1-trifluoropropan-2-yl)oxy]benzonitrile]	100 to 1000
CCC(F)(CC)c1ccc(C#N)c(OC)c1C(=O)N1CCc2nn(-c3ccc(F)cc3)cc2C1 [Example 208]	1000 to 10000
COc1c(C#N)ccc(OC(C)C(F)(F)F)c1C(=O)N1CCc2c(cnn2-c2ccc(F)cn2)C1 (stereo not drawn) [Example 209, 3-[1-(5-Fluoropyridin-2-yl)-1H 4H 5H 6H 7H-pyrazolo[4,3-c]pyridine-5-carbonyl]-2-methoxy-4-[(1 1 1-trifluoropropan-2-yl)oxy]benzonitrile]	< 100
CC(Oc1ccc(C#N)c(Cl)c1C(=O)N1CCc2c(cnn2-c2ccc(F)cn2)C1)C(F)(F)F (stereo not drawn) [Example 210, 2-Chloro-3-[1-(5-fluoropyridin-2-yl)-1H 4H 5H 6H 7H-pyrazolo[4,3-c]pyridine-5-carbonyl]-4-[(1 1 1-trifluoropropan-2-yl)oxy]benzonitrile]	< 100
CC(Oc1ccc(C#N)c(Cl)c1C(=O)N1CCc2nn(-c3cccnc3)cc2C1)C(F)(F)F (stereo not drawn) [Example 211, 2-Chloro-3[2-(pyridin-3-yl)-2H 4H 5H 6H 7H-pyrazolo[4,3-c]pyridine-5-carbonyl]-4-[(1 1 1-trifluoropropan-2-yl)oxy]benzonitrile]	100 to 1000
COc1c(C#N)ccc(C2(F)CCC2)c1C(=O)N1CCc2nn(-c3ccc(F)cn3)cc2C1 [Example 212, 4-(1-Fluorocyclobutyl)-3-[2-(5-fluoropyridin-2-yl)-2H 4H 5H 6H 7H-pyrazolo[4,3-c]pyridine-5-carbonyl]-2-methoxybenzonitrile]	100 to 1000
COc1c(C#N)ccc(OC(C)C(F)(F)F)c1C(=O)N1CCc2nn(-c3cccnc3)cc2C1 (stereo not drawn) [Example 213, 2-Methoxy-3-[2-(pyridin-3-yl)-2H 4H 5H 6H 7H-pyrazolo[4,3-c]pyridine-5-carbonyl]-4-[(1 1 1-trifluoropropan-2-yl)oxy]benzonitrile]	< 100
CC(Oc1ccc(C#N)c(Cl)c1C(=O)N1CCc2c(cnn2C2CCCCC2)C1)C(F)(F)F (stereo not drawn) [Example 214, 2-Chloro-3-{1-cyclohexyl-1H 4H 5H 6H 7H-pyrazolo[4,3-c]pyridine-5-carbonyl}-4-[(1 1 1-trifluoropropan-2-yl)oxy]benzonitrile.]	100 to 1000
COc1c(C#N)ccc(OC(C)C(F)(F)F)c1C(=O)N1CCc2c(cnn2C2CCCCC2)C1 (stereo not drawn) [Example 215, 3-{1-Cyclohexyl-1H 4H 5H 6H 7H-pyrazolo[4,3-c]pyridine-5-carbonyl}-2-methoxy-4-[(1 1 1-trifluoropropan-2-yl)oxy]benzonitrile]	< 100
CC(Oc1ccc(C#N)c(Cl)c1C(=O)N1CCc2nn(-c3ccccn3)cc2C1)C(F)(F)F (stereo not drawn) [Example 216, 2-Chloro-3-[2-(pyridin-2-yl)-2H 4H 5H 6H 7H-pyrazolo[4,3-c]pyridine-5-carbonyl]-4-[(1 1 1-trifluoropropan-2-yl)oxy]benzonitrile]	100 to 1000
COc1c(C#N)ccc(OC(C)C(F)(F)F)c1C(=O)N1CCc2nn(-c3ccccn3)cc2C1 (stereo not drawn) [Example 217, 2-Methoxy-3-[2-(pyridin-2-yl)-2H 4H 5H 6H 7H-pyrazolo[4,3-c]pyridine-5-carbonyl]-4-[(1 1 1-trifluoropropan-2-yl)oxy]benzonitrile]	100 to 1000
COc1c(C#N)ccc(OC(C)C(F)(F)F)c1C(=O)N1CCc2c(cnn2-c2cccnc2)C1 (stereo not drawn) [Example 218, 2-Methoxy-3-[1-(pyridin-3-yl)-1H 4H 5H 6H 7H-pyrazolo[4,3-c]pyridine-5-carbonyl]-4-[(1 1 1-trifluoropropan-2-yl)oxy]benzonitrile]	< 100
CC(Oc1ccc(C#N)c(Cl)c1C(=O)N1CCc2nn(-c3ccncc3)cc2C1)C(F)(F)F (stereo not drawn) [Example 219, 2-Chloro-3-[2-(pyridin-4-yl)-2H 4H 5H 6H 7H-pyrazolo[4,3-c]pyridine-5-carbonyl]-4-[(1 1 1-trifluoropropan-2-yl)oxy]benzonitrile]	< 100
COc1c(C#N)ccc(OC(C)C(F)(F)F)c1C(=O)N1CCc2nn(-c3ccncc3)cc2C1 (stereo not drawn) [Example 220, 2-Methoxy-3-[2-(pyridin-4-yl)-2H 4H 5H 6H 7H-pyrazolo[4,3-c]pyridine-5-carbonyl]-4-[(1 1 1-trifluoropropan-2-yl)oxy]benzonitrile]	< 100
COc1c(C#N)ccc(OC(C)C(F)(F)F)c1C(=O)N1CCc2c(cnn2C2CCOCC2)C1 (stereo not drawn) [Example 221, 2-Methoxy-3-[1-(oxan-4-yl)-1H 4H 5H 6H 7H-pyrazolo[4,3-c]pyridine-5-carbonyl]-4-[(1 1 1-trifluoropropan-2-yl)oxy]benzonitrile]	100 to 1000
C[C@H](Oc1ccc(C#N)c(Cl)c1C(=O)N1CCc2nn(-c3ccc(F)cn3)cc2C1)C(F)(F)F [Example 222, 2-Chloro-3-[2-(5-fluoropyridin-2-yl)-2H 4H 5H 6H 7H-pyrazolo[4,3-c]pyridine-5-carbonyl]-4-{[(2S)-1 1 1-trifluoropropan-2-yl]oxy}benzonitrile]	100 to 1000
N#Cc1ccc(OCC(F)(F)F)c(C(=O)N2CCc3nn(-c4ccc(F)cc4)cc3C2)c1Cl [Example 223, 2-Chloro-3-[2-(4-fluorophenyl)-2H 4H 5H 6H 7H-pyrazolo[4,3-c]pyridine-5-carbonyl]-4-(2 2 2-trifluoroethoxy)benzonitrile]	1000 to 10000
N#Cc1ccc(OCC(F)(F)F)c(C(=O)N2CCc3nn(-c4ccc(F)cn4)cc3C2)c1Cl [Example 224, 2-Chloro-3-[2-(5-fluoropyridin-2-yl)-2H 4H 5H 6H 7H-pyrazolo[4,3-c]pyridine-5-carbonyl]-4-(2 2 2-trifluoroethoxy)benzonitrile]	1000 to 10000
COc1c(C#N)ccc(O[C@@H](C)C(F)(F)F)c1C(=O)N1CCc2nn(-c3ccc(F)cn3)cc2C1 [Example 225, 3-[2-(5-Fluoropyridin-2-yl)-2H 4H 5H 6H 7H-pyrazolo[4,3-c]pyridine-5-carbonyl]-2-methoxy-4-{[(2S)-1 1 1-trifluoropropan-2-yl]oxy}benzonitrile]	100 to 1000
Cc1cc(-n2cc3c(n2)CCN(C(=O)c2c(OC(C)C(F)(F)F)ccc(C#N)c2Cl)C3)ccn1 (stereo not drawn) [Example 226, 2-Chloro-3-[2-(2-methylpyridin-4-yl)-2H 4H 5H 6H 7H-pyrazolo[4,3-c]pyridine-5-carbonyl]-4-[(1 1 1-trifluoropropan-2-yl)oxy]benzonitrile]	< 100
COc1c(C#N)ccc(OC(C)C(F)(F)F)c1C(=O)N1CCc2nn(-c3ccnc(C)c3)cc2C1 (stereo not drawn) [Example 227, 2-Methoxy-3-[2-(2-methylpyridin-4-yl)-2H 4H 5H 6H 7H-pyrazolo[4,3-c]pyridine-5-carbonyl]-4-[(1 1 1-trifluoropropan-2-yl)oxy]benzonitrile]	< 100
CC(Oc1ccc(C#N)c(Cl)c1C(=O)N1CCc2nn(-c3ccc(Cl)cn3)cc2C1)C(F)(F)F (stereo not drawn) [Example 228, 2-Chloro-3-[2-(5-chloropyridin-2-yl)-2H 4H 5H 6H 7H-pyrazolo[4,3-c]pyridine-5-carbonyl]-4-[(1 1 1-trifluoropropan-2-yl)oxy]benzonitrile]	100 to 1000
